# Patent US20050215609A1, “Novel uses of prostaglandin d2, prostaglandin d2 agonist and prostaglandin d2 antagonist” (priority 2002, published 2005)
# Where a name gives a salt, the structure may show the parent alone.
# Assays:
# Male ddY mice [1] = assay: Anorexigenic action of PGD2 antagonist, food intake of mice after ICV administration (Experiment 3 (1)); type: in vivo; conditions: BW A868C 0.72 and 7.2 μg/mouse
# Method: (§1) The weight of food pellets was measured before and after ICV injection and cumulative food intake was calculated.
# The PGD2 antagonist used in Experiment 2, i.e., (±) 3-benzyl-5-(6-carboxyhexyl)-1-(2-cyclohexyl-2-hydroxyethylamino)hydantoin (BW A868C, Sigma-Aldrich), was used to investigate anorexigenic action in mice. The compound was administered to mice via ICV injection (0.72 and 7.2 μg/mouse) as described in Experiment 1, and the food intake was compared with the group that received the vehicle (ACSF).
# PGD2 receptor = biological target: T1, PGD2 receptor (Mus musculus, UniProt P70263); assay: Effect of PGD2 antagonist on the orexigenic action of PGD2, combined ICV administration (Experiment 2); type: in vivo; conditions: mice, two hours after administration
# T1 construct: injected into the third cerebral ventricle; from tissue; host or cells: living ddY mouse, brain (ICV injection into the third cerebral ventricle)
# T1 sequence (P70263 1-357): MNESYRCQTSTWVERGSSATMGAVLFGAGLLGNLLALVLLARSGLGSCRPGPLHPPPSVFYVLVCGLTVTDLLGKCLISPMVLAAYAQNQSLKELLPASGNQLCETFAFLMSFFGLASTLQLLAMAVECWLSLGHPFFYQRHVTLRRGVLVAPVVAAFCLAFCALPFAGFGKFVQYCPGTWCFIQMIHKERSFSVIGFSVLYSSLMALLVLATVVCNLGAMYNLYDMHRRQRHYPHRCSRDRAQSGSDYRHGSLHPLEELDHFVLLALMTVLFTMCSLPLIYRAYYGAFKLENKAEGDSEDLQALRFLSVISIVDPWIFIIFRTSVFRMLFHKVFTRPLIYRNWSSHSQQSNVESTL
# Method: as §1
# (§2) Values were expressed as the mean ± SEM. Analysis of variance (ANOVA) followed by Bonferroni's t-test was used to assess differences among groups. P values less than 0.05 were considered significant.
# The groups, one of which was administered PGD2 alone and the other received combined administration of PGD2/PGD2 antagonist, were used to investigate the effect of PGD2 antagonist on the orexigenic action of PGD2. PGD2 antagonist, (±) 3-benzyl-5-(6-carboxyhexyl)-1-(2-cyclohexyl-2-hydroxyethylamino)hydantoin (BW A868C, Sigma-Aldrich) was used.
# [2] = Changes in body weight of fasted SD rat after ICV administration (Experiment 3 (2), Table 1); type: in vivo; conditions: SD rat fasted 24 hours, 100 μg
# Method: (§3) The PGD2 antagonist, (Z)-7-[(1R,2R,3S,5S)]-2-(5-hydroxybenzo[b]thiophene-3-ylcarbonylamino)-10-norpinane-3-yl]heptan-5-enonic acid (formula IA-a1) was used to investigate anorexigenic action […]. The sodium salt of this compound was administered to SD rat, fasted for 24 hours, via ICV injection as described above (dosage: 0.1, 1, 10, 100 μg/rat), and the food intake was compared with the group that received vehicle (5% DMSO in saline).
# SD rat [3] = assay: Cumulative food intake of SD rat after intraperitoneal administration (Experiment 3 (2), Table 2); type: in vivo; conditions: i.p., 30 mg/kg
# Method: as §1, §2
# Also, another group of SD rat was administered the test compound via intraperitoneal administration (30 mg/kg) and the food intake was compared with the group that received vehicle (5% DMSO in saline).
# SD rat [4] = assay: Cumulative food intake of fasted SD rat after ICV administration (Experiment 3 (2), Table 1); type: in vivo; conditions: SD rat fasted 24 hours, 100 μg
# Method: as §1, §2, §3
# Male ddY mice [5] = assay: Food intake of mice after ICV administration of PGD2 (Experiment 1); type: in vivo, mouse
# Method: as §1, §2
compound,measurement,setting,value
"O=C(O)CCCCCCC1C(=O)N(Cc2ccccc2)C(=O)N1NCC(O)C1CCCCC1 (racemic) [BW A868C, (±)-3-benzyl-5-(6-carboxyhexyl)-1-(2-cyclohexyl-2-hydroxyethylamino)hydantoin]",food intake compared to vehicle,Male ddY mice [1],inhibition of food intake was observed
same,effect on the orexigenic action of PGD2 (food intake),PGD2 receptor,inhibited the orexigenic action of PGD2 completely
CC1(C)C2CC1[C@H](NC(=O)c1csc3ccc(O)cc13)[C@@H](C/C=C\CCCC(=O)O)C2 (some centres unmarked) [Compund (IA-a1) (Na salt)],Changes in body weght (g) 1 hr.,[2]; 1 hr.,0.89 ± 0.79 g
same,Changes in body weght (g) 2 hr.,[2]; 2 hr.,2.89 ± 1.28 g
same,Changes in body weght (g) 4 hr.,[2]; 4 hr.,1.07 ± 1.47 g
same,Changes in body weght (g) 24 hr.,[2]; 24 hr.,7.20 ± 2.60 g
same,Cululative Food intake (g) 1 hr.,SD rat [3]; 1 hr.,2.38 ± 0.41 g
same,Cululative Food intake (g) 2 hr.,SD rat [3]; 2 hr.,4.30 ± 0.67 g
same,Cululative Food intake (g) 4 hr.,SD rat [3]; 4 hr.,7.85 ± 0.66 g
same,Cululative Food intake (g) 24 hr.,SD rat [3]; 24 hr.,32.05 ± 1.09 g
same,Cululative Food intake (g) 1 hr.,SD rat [4]; 1 hr.,5.18 ± 0.47 g
same,Cululative Food intake (g) 2 hr.,SD rat [4]; 2 hr.,6.15 ± 0.50 g
same,Cululative Food intake (g) 4 hr.,SD rat [4]; 4 hr.,6.86 ± 0.49 g
same,Cululative Food intake (g) 24 hr.,SD rat [4]; 24 hr.,25.71 ± 1.30 g
"CCCCC[C@H](O)/C=C/[C@H]1C(=O)C[C@H](O)[C@@H]1C/C=C\CCCC(=O)O [PGD2, prostaglandin D2]",food intake versus control group,"Male ddY mice [5]; 0.2 μg PGD2/mouse, 60 and 120 min after the injection",significant increase in food intake
same,food intake versus control group,"Male ddY mice [5]; 2 μg PGD2/mouse, 60 and 120 min after the injection",significant increase in food intake
same,food intake versus control group,Male ddY mice [5]; 20 μg PGD2/mouse,"the food intake was temporally inhibited shortly after the injection, but the food intake was increased thereafter"
